According to PMC6941823, “A dispensable paralog of succinate dehydrogenase subunit C mediates standing resistance towards a subclass of SDHI fungicides in Zymoseptoria tritici” (PLoS Pathogens, 2019):
Like-named read-outs stand apart in the source and are kept apart here.

System: Zymoseptoria tritici progeny isolates
Type: cell-based
Details: for phenotype flag S (sensitive): 1 = sensitive; for Phenotype sensitive (S) flag: fluopyram 10 mg.L^-1 agar, 1 in S column; for phenotype flag, sensitive (S): growth on fluopyram 10 mg.L^-1 agar; for phenotype flag, sensitive (S) / Phenotyping Growth Fluopyram 10ppm Sensitive: 1 = scored sensitive; for Phenotype scored sensitive (S): agar growth on fluopyram 10 mg.L^-1, 1 = scored in this class

O=C(NCCc1ncc(C(F)(F)F)cc1Cl)c1ccccc1C(F)(F)F [Fluopyram]
phenotype flag S (sensitive) (progeny isolate 25, cross IPO323XD024): 1
phenotype flag S (sensitive) (progeny isolate 27, cross IPO323XD024): 1
phenotype flag S (sensitive) (progeny isolate 28, cross IPO323XD024): 1
phenotype flag S (sensitive) (progeny isolate 31, cross IPO323XD024): 1
phenotype flag S (sensitive) (progeny isolate 32, cross IPO323XD024): 1
phenotype flag S (sensitive) (progeny isolate 34, cross IPO323XD024): 1
phenotype flag S (sensitive) (progeny isolate 37, cross IPO323XD024): 1
phenotype flag S (sensitive) (progeny isolate 39, cross IPO323XD024): 1
phenotype flag S (sensitive) (progeny isolate 40, cross IPO323XD024): 1
phenotype flag S (sensitive) (progeny isolate 43, cross IPO323XD024): 1
phenotype flag S (sensitive) (progeny isolate 46, cross IPO323XD024): 1
phenotype flag S (sensitive) (progeny isolate 49, cross IPO323XD024): 1
phenotype flag S (sensitive) (progeny isolate 50, cross IPO323XD024): 1
phenotype flag S (sensitive) (progeny isolate 51, cross IPO323XD024): 1
phenotype flag S (sensitive) (progeny isolate 53, cross IPO323XD024): 1
phenotype flag S (sensitive) (progeny isolate 54, cross IPO323XD024): 1
phenotype flag S (sensitive) (progeny isolate 55, cross IPO323XD024): 1
phenotype flag S (sensitive) (progeny isolate 56, cross IPO323XD024): 1
phenotype flag S (sensitive) (progeny isolate 57, cross IPO323XD024): 1
phenotype flag S (sensitive) (progeny isolate 59, cross IPO323XD024): 1
phenotype flag S (sensitive) (progeny isolate 60, cross IPO323XD024): 1
phenotype flag S (sensitive) (progeny isolate 62, cross IPO323XD024): 1
phenotype flag S (sensitive) (progeny isolate 63, cross IPO323XD024): 1
phenotype flag S (sensitive) (progeny isolate 65, cross IPO323XD024): 1
phenotype scored sensitive (S), flag 1 (progeny isolate 67, cross IPO323XD024, fluopyram 10 mg.L^-1 agar): 1
phenotype scored sensitive (S), flag 1 (progeny isolate 71, cross IPO323XD024, fluopyram 10 mg.L^-1 agar): 1
phenotype scored sensitive (S), flag 1 (progeny isolate 72, cross IPO323XD024, fluopyram 10 mg.L^-1 agar): 1
phenotype scored sensitive (S), flag 1 (progeny isolate 75, cross IPO323XD024, fluopyram 10 mg.L^-1 agar): 1
phenotype scored sensitive (S), flag 1 (progeny isolate 77, cross IPO323XD024, fluopyram 10 mg.L^-1 agar): 1
phenotype scored sensitive (S), flag 1 (progeny isolate 78, cross IPO323XD024, fluopyram 10 mg.L^-1 agar): 1
phenotype scored sensitive (S), flag 1 (progeny isolate 82, cross IPO323XD024, fluopyram 10 mg.L^-1 agar): 1
phenotype scored sensitive (S), flag 1 (progeny isolate 83, cross IPO323XD024, fluopyram 10 mg.L^-1 agar): 1
phenotype scored sensitive (S), flag 1 (progeny isolate 84, cross IPO323XD024, fluopyram 10 mg.L^-1 agar): 1
phenotype scored sensitive (S), flag 1 (progeny isolate 88, cross IPO323XD024, fluopyram 10 mg.L^-1 agar): 1
phenotype scored sensitive (S), flag 1 (progeny isolate 89, cross IPO323XD024, fluopyram 10 mg.L^-1 agar): 1
phenotype scored sensitive (S), flag 1 (progeny isolate 90, cross IPO323XD024, fluopyram 10 mg.L^-1 agar): 1
phenotype scored sensitive (S), flag 1 (progeny isolate 91, cross IPO323XD024, fluopyram 10 mg.L^-1 agar): 1
phenotype scored sensitive (S), flag 1 (progeny isolate 92, cross IPO323XD024, fluopyram 10 mg.L^-1 agar): 1
phenotype scored sensitive (S), flag 1 (progeny isolate 102, cross IPO323XD024, fluopyram 10 mg.L^-1 agar): 1
phenotype scored sensitive (S), flag 1 (progeny isolate 103, cross IPO323XD024, fluopyram 10 mg.L^-1 agar): 1
phenotype scored sensitive (S), flag 1 (progeny isolate 106, cross IPO323XD024, fluopyram 10 mg.L^-1 agar): 1
phenotype scored sensitive (S), flag 1 (progeny isolate 107, cross IPO323XD024, fluopyram 10 mg.L^-1 agar): 1
Phenotype sensitive (S) flag (progeny isolate 150 of cross IPO323XD024): 1
Phenotype sensitive (S) flag (progeny isolate 151 of cross IPO323XD024): 1
Phenotype sensitive (S) flag (progeny isolate 152 of cross IPO323XD024): 1
Phenotype sensitive (S) flag (progeny isolate 153 of cross IPO323XD024): 1
Phenotype sensitive (S) flag (progeny isolate 155 of cross IPO323XD024): 1
Phenotype sensitive (S) flag (progeny isolate 156 of cross IPO323XD024): 1
Phenotype sensitive (S) flag (progeny isolate 158 of cross IPO323XD024): 1
Phenotype sensitive (S) flag (progeny isolate 161 of cross IPO323XD024): 1
Phenotype sensitive (S) flag (progeny isolate 162 of cross IPO323XD024): 1
Phenotype sensitive (S) flag (progeny isolate 163 of cross IPO323XD024): 1
Phenotype sensitive (S) flag (progeny isolate 166 of cross IPO323XD024): 1
Phenotype sensitive (S) flag (progeny isolate 168 of cross IPO323XD024): 1
Phenotype sensitive (S) flag (progeny isolate 169 of cross IPO323XD024): 1
Phenotype sensitive (S) flag (progeny isolate 173 of cross IPO323XD024): 1
Phenotype sensitive (S) flag (progeny isolate 174 of cross IPO323XD024): 1
Phenotype sensitive (S) flag (progeny isolate 175 of cross IPO323XD024): 1
Phenotype sensitive (S) flag (progeny isolate 176 of cross IPO323XD024): 1
Phenotype sensitive (S) flag (progeny isolate 177 of cross IPO323XD024): 1
Phenotype sensitive (S) flag (progeny isolate 182 of cross IPO323XD024): 1
Phenotype sensitive (S) flag (progeny isolate 184 of cross IPO323XD024): 1
Phenotype sensitive (S) flag (progeny isolate 185 of cross IPO323XD024): 1
phenotype flag, sensitive (S) (progeny isolate 192, cross IPO323XD024): 1
phenotype flag, sensitive (S) (progeny isolate 193, cross IPO323XD024): 1
phenotype flag, sensitive (S) (progeny isolate 195, cross IPO323XD024): 1
phenotype flag, sensitive (S) (progeny isolate 197, cross IPO323XD024): 1
phenotype flag, sensitive (S) (progeny isolate 201, cross IPO323XD024): 1
phenotype flag, sensitive (S) (progeny isolate 207, cross IPO323XD024): 1
phenotype flag, sensitive (S) (progeny isolate 209, cross IPO323XD024): 1
phenotype flag, sensitive (S) (progeny isolate 210, cross IPO323XD024): 1
phenotype flag, sensitive (S) (progeny isolate 211, cross IPO323XD024): 1
phenotype flag, sensitive (S) (progeny isolate 215, cross IPO323XD024): 1
phenotype flag, sensitive (S) (progeny isolate 217, cross IPO323XD024): 1
phenotype flag, sensitive (S) (progeny isolate 218, cross IPO323XD024): 1
phenotype flag, sensitive (S) (progeny isolate 220, cross IPO323XD024): 1
phenotype flag, sensitive (S) (progeny isolate 221, cross IPO323XD024): 1
phenotype flag, sensitive (S) (progeny isolate 223, cross IPO323XD024): 1
phenotype flag, sensitive (S) (progeny isolate 224, cross IPO323XD024): 1
phenotype flag, sensitive (S) (progeny isolate 225, cross IPO323XD024): 1
phenotype flag, sensitive (S) (progeny isolate 227, cross IPO323XD024): 1
phenotype flag, sensitive (S) (progeny isolate 228, cross IPO323XD024): 1
phenotype flag, sensitive (S) (progeny isolate 229, cross IPO323XD024): 1
Phenotype scored sensitive (S) (progeny isolate 230 of cross IPO323 x D024): 1
Phenotype scored sensitive (S) (progeny isolate 235 of cross IPO323 x D024): 1
Phenotype scored sensitive (S) (progeny isolate 237 of cross IPO323 x D024): 1
Phenotype scored sensitive (S) (progeny isolate 238 of cross IPO323 x D024): 1
Phenotype scored sensitive (S) (progeny isolate 239 of cross IPO323 x D024): 1
Phenotyping Growth Fluopyram 10ppm Sensitive (progeny strain 3, cross IPO323XD024): 1
Phenotyping Growth Fluopyram 10ppm Sensitive (progeny strain 10, cross IPO323XD024): 1
Phenotyping Growth Fluopyram 10ppm Sensitive (progeny strain 13, cross IPO323XD024): 1
Phenotyping Growth Fluopyram 10ppm Sensitive (progeny strain 14, cross IPO323XD024): 1
Phenotyping Growth Fluopyram 10ppm Sensitive (progeny strain 16, cross IPO323XD024): 1
Phenotyping Growth Fluopyram 10ppm Sensitive (progeny strain 17, cross IPO323XD024): 1
Phenotyping Growth Fluopyram 10ppm Sensitive (progeny strain 18, cross IPO323XD024): 1
Phenotyping Growth Fluopyram 10ppm Sensitive (progeny strain 19, cross IPO323XD024): 1
Phenotyping Growth Fluopyram 10ppm Sensitive (progeny strain 20, cross IPO323XD024): 1
Phenotyping Growth Fluopyram 10ppm Sensitive (progeny strain 21, cross IPO323XD024): 1
Phenotyping Growth Fluopyram 10ppm Sensitive (progeny strain 23, cross IPO323XD024): 1
Phenotyping Growth Fluopyram 10ppm Sensitive (strain D024 (parent), cross IPO323XD024, 0 = not): 0
Phenotyping Growth Fluopyram 10ppm Sensitive (strain IPO323 (parent), cross IPO323XD024, 0 = not): 1
